From ChEMBL document CHEMBL1201862, “PubChem BioAssay data set” (2004)
Calls of active or inactive are those of the source.

What was measured:
Beta-galactosidase [1] = molecular target: T1, Beta-galactosidase (Escherichia coli, UniProt Q8VNN2); assay: beta-galactosidase enzyme inhibitors and activators, dose response, artefact control for CCR6 antagonist project, biochemical, E. coli enzyme, set 3 (AID 504712); type: functional
[2] = Luminescence Cell-Based Dose Response HTS to Identify Inhibitors of 5'UTR Stem-Loop Driven Prion Protein mRNA Translation in H4 Neuroglioblastoma Cells. [Related pubchem assays: 1827 (Project Summary), 1813 (Primary HTS)]; type: functional
[3] = inhibitors of firefly luciferase expression or activity, dose response, H4 neuroglioma cells, luminescence (AID 1990); type: functional, cell-based
[4] = inhibitors of SNCA 5'UTR-driven reporter translation, confirmation, H4 neuroglioma cells, luminescence (AID 1988); type: functional, cell-based
[5] = molecular target: T2, Type-1 angiotensin II receptor (Homo sapiens, UniProt P30556); assay: AT1 receptor antagonists, dose response, selectivity assay for APJ receptor antagonist project, cell-based, uHTS hits (AID 463214); type: functional;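 further: antagonist potency against angiotensin II stimulated AT1 response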
T2 sequence (P30556 whole entry): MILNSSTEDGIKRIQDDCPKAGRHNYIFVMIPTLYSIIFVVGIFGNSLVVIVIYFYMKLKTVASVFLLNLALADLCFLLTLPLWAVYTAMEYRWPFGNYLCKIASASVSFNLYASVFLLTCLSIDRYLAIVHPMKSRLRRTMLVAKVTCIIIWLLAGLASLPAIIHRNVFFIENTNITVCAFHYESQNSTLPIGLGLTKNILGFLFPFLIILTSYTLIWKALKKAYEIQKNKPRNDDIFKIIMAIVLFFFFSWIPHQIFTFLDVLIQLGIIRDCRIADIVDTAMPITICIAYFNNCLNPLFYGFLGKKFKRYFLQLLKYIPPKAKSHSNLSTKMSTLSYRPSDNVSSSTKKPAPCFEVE

Beta-galactosidase [6] = molecular target: T1, Beta-galactosidase; assay: PubChem AID 485352; type: functional
[7] = A Cell Based Secondary Assay To Explore Cytotoxicity of Compounds that Sensitize Mycobacterium Tuberculosis to Beta-Lactam Antibiotics.; type: functional
[8] = P. falciparum Dd2 growth inhibitors, dose response, SYBR Green, cherry-picked samples (AID 1159567); type: functional, cell-based
[9] = P. falciparum Dd2 growth inhibitors, dose response, SYBR Green, dry powder samples (AID 1159566); type: functional, cell-based;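 further: potency for growth inhibition with lower SYBR green DNA signal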
[10] = HepG2 cell cytotoxicity, dose response, cytotoxicity control, cherry-picked samples (AID 1159577); type: functional, cell-based
[11] = P. falciparum ATP4 D1247Y mutant growth inhibitors, dose response, NITD609-resistant line, SYBR Green, dry powder (AID 1159571); type: functional, cell-based;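 further: parasites synchronized at ring stage by sorbitol before testing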
[12] = HepG2 cell cytotoxicity, dose response, cytotoxicity control, plate reader, dry powder samples (AID 1159569); type: functional, cell-based;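 further: inhibitor potency with signal falling toward the positive control level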
[13] = P. falciparum 3D7-ScDHODH growth inhibitors, dose response, SYBR Green, dry powder samples (AID 1159570); type: functional, cell-based;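 further: parasite growth measured after 72 hours of compound exposure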
[14] = molecular target: T3, Oxysterols receptor LXR-beta (Homo sapiens, UniProt P55055); type: functional, cell-based;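 further: Cell-based luminescence dose-response assay of agonist activity at LXR, run as a confirmatory counterscreen to a daf-12 agonist screen; HEK293 cells with Gal4-LXR fusion and GAL4-driven luciferase reporter; agonist potency from rising luciferase signal of a Gal4-LXR reporter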
T3 sequence (P55055 whole entry): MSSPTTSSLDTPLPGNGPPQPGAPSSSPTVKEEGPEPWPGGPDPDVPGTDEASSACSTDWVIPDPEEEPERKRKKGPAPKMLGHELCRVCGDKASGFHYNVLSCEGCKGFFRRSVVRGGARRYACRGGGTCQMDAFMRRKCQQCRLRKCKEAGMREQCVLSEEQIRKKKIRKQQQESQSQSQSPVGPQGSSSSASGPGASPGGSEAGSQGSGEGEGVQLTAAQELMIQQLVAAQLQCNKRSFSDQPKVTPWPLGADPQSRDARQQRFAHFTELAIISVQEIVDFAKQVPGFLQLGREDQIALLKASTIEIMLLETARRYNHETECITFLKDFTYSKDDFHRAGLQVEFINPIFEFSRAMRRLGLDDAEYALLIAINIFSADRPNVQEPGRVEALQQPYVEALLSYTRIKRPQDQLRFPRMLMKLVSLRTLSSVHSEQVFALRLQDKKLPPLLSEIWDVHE

[15] = HEp-2 cell cytotoxicity, dose response, cytotoxicity control for RSV inhibitor project, HTS (AID 2410); type: functional; conditions: human respiratory syncytial virus
[16] = inhibitors of intracellular T. cruzi replication, confirmation, NIH3T3 host cells, beta-gal luminescence (AID 2044); type: functional, cell-based;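 further: intracellular parasites grown in NIH/3T3 mouse fibroblasts as host cells; luminescent beta-galactosidase reporter signal from transgenic T. cruzi replicating inside host cells; inhibitors lower the luminescence signal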
Streptokinase A = molecular target: T4, Streptokinase A (Streptococcus pyogenes serotype M1, UniProt P10520); assay: S. pyogenes streptokinase expression inhibitors, potency, dose response, plasminogen activation absorbance, OD405 (AID 1914); type: functional, Streptococcus pyogenes M1 GAS;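 further: secreted streptokinase activity via plasminogen activation per viability signal from cell pellet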
T4 sequence (P10520 whole entry): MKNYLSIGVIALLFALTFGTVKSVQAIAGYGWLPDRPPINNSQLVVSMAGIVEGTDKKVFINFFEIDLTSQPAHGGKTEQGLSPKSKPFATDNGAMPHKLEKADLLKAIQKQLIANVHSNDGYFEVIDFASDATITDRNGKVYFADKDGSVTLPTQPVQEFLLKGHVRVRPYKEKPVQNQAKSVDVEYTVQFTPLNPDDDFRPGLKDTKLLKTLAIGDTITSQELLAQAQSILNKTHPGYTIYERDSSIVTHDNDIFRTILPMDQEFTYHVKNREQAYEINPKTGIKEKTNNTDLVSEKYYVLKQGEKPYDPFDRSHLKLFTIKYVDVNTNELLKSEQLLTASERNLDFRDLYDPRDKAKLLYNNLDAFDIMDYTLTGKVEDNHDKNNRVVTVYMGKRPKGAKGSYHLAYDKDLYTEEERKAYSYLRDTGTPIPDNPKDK

Streptococcus = assay: Group A Streptococcus viability loss, dose response, counter-screen for streptokinase expression inhibitor project, luminescence, BacTiterGlo (AID 1915); type: functional, organism-based;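 further: potency for reduction of bacterial viability or growth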
[17] = system: Streptococcus sp. 'group A'; assay: growth inhibition of control SK(-) GAS strain, dose response, counter-screen for streptokinase expression inhibitor project, luminescence, kanamycin, BacTiterGlo, confirmation (AID 1900); type: functional, organism-based
[18] = cytotoxicity toward NIH3T3 fibroblasts, dose response, counter-screen, cell-based, ATP luminescence, mouse fibroblasts (AID 2010); type: functional;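 further: cells exposed to compound for about 90 hours before reading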
[19] = insulin promoter down-regulators in MIN6 cells, imaging, high-content screening, mouse beta cells (AID 1628); type: functional
[20] = cytotoxicity in MIN6 insulinoma cells, dose response, cytotoxicity control, cell-based, mouse insulinoma (AID 2122); type: functional;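 further: confirmatory high-throughput counterscreen run to flag cytotoxic compounds; mouse MIN-6 beta cells carrying an insulin promoter eGFP reporter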
[21] = molecular target: DNA dC->dU-editing enzyme APOBEC-3G (Homo sapiens, UniProt Q9HC16); assay: Dose Response confirmation of small molecule APOBEC3G DNA Deaminase Inhibitors via a fluorescence-based single-stranded DNA deaminase assay. [Related pubchem assays (depositor defined):AID493012, AID493028]; type: functional
[22] = molecular target: DNA dC->dU-editing enzyme APOBEC-3A (Homo sapiens, UniProt P31941); assay: APOBEC3A DNA deaminase inhibitors, dose response, biochemical (AID 504722); type: functional
[23] = Luminescence Cell-Based Dose Retest to Confirm Inhibitors of Cancer Stem Cells. [Related pubchem assays (depositor defined):AID2717, AID2721]; type: functional; conditions: Homo sapiens

T1 sequence (Q8VNN2 whole entry): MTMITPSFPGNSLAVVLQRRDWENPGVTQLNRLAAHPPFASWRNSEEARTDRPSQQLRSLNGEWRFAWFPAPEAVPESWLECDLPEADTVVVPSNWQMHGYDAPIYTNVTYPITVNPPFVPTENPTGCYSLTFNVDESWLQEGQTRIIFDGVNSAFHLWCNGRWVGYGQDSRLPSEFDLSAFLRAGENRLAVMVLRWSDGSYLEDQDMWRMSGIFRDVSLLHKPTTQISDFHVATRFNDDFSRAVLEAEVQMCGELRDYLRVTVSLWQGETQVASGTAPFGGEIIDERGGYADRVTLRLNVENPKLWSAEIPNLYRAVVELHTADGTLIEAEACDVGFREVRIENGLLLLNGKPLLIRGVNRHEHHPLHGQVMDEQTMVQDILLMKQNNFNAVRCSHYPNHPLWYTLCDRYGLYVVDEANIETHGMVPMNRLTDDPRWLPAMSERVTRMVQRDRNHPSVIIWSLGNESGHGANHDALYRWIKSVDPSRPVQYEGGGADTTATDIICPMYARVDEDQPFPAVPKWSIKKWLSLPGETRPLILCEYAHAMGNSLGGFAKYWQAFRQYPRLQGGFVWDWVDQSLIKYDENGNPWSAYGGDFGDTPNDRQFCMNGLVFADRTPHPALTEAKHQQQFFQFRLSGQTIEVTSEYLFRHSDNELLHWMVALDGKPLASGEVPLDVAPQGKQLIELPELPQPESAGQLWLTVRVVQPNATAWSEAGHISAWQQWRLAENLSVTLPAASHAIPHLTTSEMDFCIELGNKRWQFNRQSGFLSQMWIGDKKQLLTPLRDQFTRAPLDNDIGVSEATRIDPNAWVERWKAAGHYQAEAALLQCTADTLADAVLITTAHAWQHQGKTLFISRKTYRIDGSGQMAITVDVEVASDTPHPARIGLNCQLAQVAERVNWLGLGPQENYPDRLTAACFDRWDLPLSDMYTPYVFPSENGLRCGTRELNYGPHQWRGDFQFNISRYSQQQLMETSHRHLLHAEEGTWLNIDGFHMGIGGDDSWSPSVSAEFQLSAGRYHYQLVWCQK
Sequence of DNA dC->dU-editing enzyme APOBEC-3A (P31941 whole entry): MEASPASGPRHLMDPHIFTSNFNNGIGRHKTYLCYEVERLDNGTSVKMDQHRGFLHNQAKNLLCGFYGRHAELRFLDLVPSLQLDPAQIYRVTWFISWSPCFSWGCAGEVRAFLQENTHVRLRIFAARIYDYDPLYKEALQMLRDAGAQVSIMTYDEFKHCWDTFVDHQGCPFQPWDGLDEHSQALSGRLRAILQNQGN
Sequence of DNA dC->dU-editing enzyme APOBEC-3G (Q9HC16 whole entry): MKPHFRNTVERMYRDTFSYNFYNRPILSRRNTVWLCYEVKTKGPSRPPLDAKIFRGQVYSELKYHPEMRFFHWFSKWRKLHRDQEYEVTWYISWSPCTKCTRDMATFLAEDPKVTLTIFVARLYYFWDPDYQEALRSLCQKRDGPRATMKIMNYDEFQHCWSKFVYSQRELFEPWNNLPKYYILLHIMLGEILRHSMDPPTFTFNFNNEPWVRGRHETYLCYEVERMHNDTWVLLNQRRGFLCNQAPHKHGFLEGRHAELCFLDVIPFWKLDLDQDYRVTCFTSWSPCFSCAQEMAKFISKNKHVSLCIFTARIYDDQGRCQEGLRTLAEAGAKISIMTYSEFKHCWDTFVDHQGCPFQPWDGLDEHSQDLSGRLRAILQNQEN

With NC(=O)c1c(NC(=O)c2ccc([N+](=O)[O-])o2)sc2c1CCCC2 the IC50 (Beta-galactosidase [1]) was > 66.6 µM (inactive), the EC50 [2] was 47.5 µM (active) and the EC50 [3] was 13.3 µM (active). For the same compound, the EC50 [4] was 7.76 µM (active).
With CC(C)CCn1c(N)c(C(=O)OCC2CCCO2)c2nc3ccccc3nc21 (stereo unspecified) the IC50 [5] was > 40 µM (not active) and the EC50 (Beta-galactosidase [6]) was > 40 µM (inactive).
In the case of CC(=O)n1cc([C@@H]2C=C(C(=O)N3CCN(Cc4ccc5c(c4)OCO5)CC3)O[C@H](OCCCCO)C2)c2ccccc21, the CC50 [7] was > 40 µM (active).
With COc1ccccc1NC(=O)N1CCCCN2[C@@H](CO)[C@H](c3ccc(C#CC4CCCC4)cc3)[C@@H]2C1 the AC50 [8] was 1.98 µM (active), the AC50 [9] was 0.386 µM (active) and the AC50 [10] was 17.4 µM (active). The AC50 [11] was 0.458 µM (active), the AC50 [12] was 10.6 µM (active) and the AC50 [13] was 0.425 µM (active).
In the case of O=C(c1c(Cl)nc2sccn12)N(C(=O)c1c(Cl)nc2sccn12)c1ccc(Cl)cn1, the EC50 (cells) was > 67.5 µM (inactive) and the EC50 [14] was > 67.5 µM (inactive).
In the case of CCn1c(=O)n(CC)c2cc(N3CCCC3)c(NC(=O)c3cc(Br)ccc3OC)cc21, the CC50 [15] was 16.4 µM (active), the EC50 [16] was 0.99 µM (active) and the EC50 (Streptokinase A) was 18.5 µM (active). For the same compound, the EC50 (Streptococcus) was 11.2 µM (active), the EC50 [17] was 7.36 µM (active) and the EC50 [18] was 12 µM (active). For the same compound, the CC50 [7] was 37.6 µM (active).
With N#Cc1ccccc1NC(=O)C1SC(Nc2ccccc2)=C(C(=O)Nc2ccc(Cl)cc2)C1=N (stereo unspecified) the IC50 [19] was 8.77 µM (active) and the IC50 [20] was 6.4 µM (active).
With COC(=O)C(C)Sc1nnc(S)s1 (stereo unspecified) the IC50 [21] was 15.8 µM (active) and the IC50 [22] was > 100 µM (inactive).
In the case of O=C(NC1=NCCS1)c1sc2cc(F)ccc2c1Cl, the EC50 (cells) was > 67.6 µM (inactive) and the EC50 [14] was > 67.6 µM (inactive).
With Cc1ccc(-c2cc(-c3ccccc3)nc(NN)n2)cc1 the AC50 [23] was 5.4 µM (active), the IC50 [5] was 6.66 µM (active) and the EC50 (Beta-galactosidase [6]) was > 40 µM (inactive).
